26 compounds from patent US10053417B2, “Neprilysin inhibitors” (THERAVANCE BIOPHARMA R&D IP, LLC, priority 2013, dated 2018) can be followed below.

Molecules are shown by their SMILES.

T1 sequence (P08473 52-750 limits assumed): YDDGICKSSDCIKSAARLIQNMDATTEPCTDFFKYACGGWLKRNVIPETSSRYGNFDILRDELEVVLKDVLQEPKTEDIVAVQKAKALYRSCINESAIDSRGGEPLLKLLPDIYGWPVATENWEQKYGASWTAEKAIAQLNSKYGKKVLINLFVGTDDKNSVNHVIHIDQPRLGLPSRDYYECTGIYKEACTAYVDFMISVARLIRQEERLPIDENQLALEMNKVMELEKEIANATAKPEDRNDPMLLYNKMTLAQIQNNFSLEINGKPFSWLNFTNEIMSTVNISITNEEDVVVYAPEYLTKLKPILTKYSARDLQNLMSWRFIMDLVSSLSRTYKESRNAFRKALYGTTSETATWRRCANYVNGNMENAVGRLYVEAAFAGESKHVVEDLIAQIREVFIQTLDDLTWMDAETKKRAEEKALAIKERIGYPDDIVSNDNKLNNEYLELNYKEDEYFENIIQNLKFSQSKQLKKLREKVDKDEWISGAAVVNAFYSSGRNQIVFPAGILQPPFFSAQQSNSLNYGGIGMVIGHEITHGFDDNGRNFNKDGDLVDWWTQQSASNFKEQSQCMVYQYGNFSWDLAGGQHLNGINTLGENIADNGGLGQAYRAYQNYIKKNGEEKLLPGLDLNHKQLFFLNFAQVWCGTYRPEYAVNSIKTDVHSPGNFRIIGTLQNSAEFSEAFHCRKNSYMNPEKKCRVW

This assay addresses T1, human NEP (Homo sapiens, UniProt P08473).
T1 construct: purchased R&D Systems, Minneapolis, Minn; 1182-ZN
The experiment in a line: In vitro enzyme inhibition assay, inhibitor potency at human NEP (Assay 1). The following applies: recombinant human NEP; fluorogenic peptide substrate 10 μM; 37° C.; values given as ranges. The assay is classed as biochemical. On the procedure: The inhibitory activities of compounds at human and rat neprilysin (EC 3.4.24.11; NEP) and human angiotensin converting enzyme (ACE) were determined using in vitro assays as described below.
Recombinant human NEP and recombinant human ACE were obtained commercially (R&D Systems, Minneapolis, Minn., catalog numbers 1182-ZN and 929-ZN, respectively). The fluorogenic peptide substrate Mca-D-Arg-Arg-Leu-Dap-(Dnp)-OH (Medeiros et al. (1997) Braz. J. Med. Biol. Res. 30:1157-62; Anaspec, San Jose, Calif.) and Abz-Phe-Arg-Lys(Dnp)-Pro-OH (Araujo et al. (2000) Biochemistry 39:8519-8525; Bachem, Torrance, Calif.) were used in the NEP and ACE assays respectively.
The assays were performed in 384-well white opaque plates at 37° C. using the fluorogenic peptide substrates at a concentration of 10 μM in Assay Buffer (NEP: 50 mM HEPES, pH 7.5, 100 mM NaCl, 0.01% polyethylene glycol sorbitan monolaurate (Tween-20), 10 μM ZnSO4; ACE: 50 mM HEPES, pH 7.5, 100 mM NaCl, 0.01% Tween-20, 1 μM ZnSO4).
Test compounds were assayed over the range of concentrations from […] to 20 μM. Test compounds were added to the enzymes and incubated for 30 minute at 37° C. prior to initiating the reaction by the addition of substrate. Reactions were terminated after 20 minutes of incubation at 37° C. by the addition of glacial acetic acid to a final concentration of 3.6% (v/v).
Plates were read on a fluorometer with excitation and emission wavelengths set to 320 nm and 405 nm, respectively. Inhibition constants were obtained by nonlinear regression of the data using the equation (GraphPad Software, Inc., San Diego, Calif.): ν=ν0/[1+(I/K′)] where ν is the reaction rate, ν0 is the uninhibited reaction rate, I is the inhibitor concentration and K′ is the apparent inhibition constant.
Compounds of the invention were tested in this assay and found to have pKi values at human NEP as follows.
For the compound `O=C(N[C@H](Cc1ccc(-c2cccc(Cl)c2)cc1)C[C@@H](O)C(=O)O)C(=O)N1CC(O)CO1` (stereo partly drawn) [Example 4-49, (2R,4R)-5-(3′-Chlorobiphenyl-4-yl)-2-hydroxy-4-[2-(4-hydroxyisoxazolidin-2-yl)-2-oxo-acetylamino]pentanoic acid], the inhibition constant Ki is 0.001 to 0.01 µM.
In the case of `O=C(N[C@H](Cc1ccc(-c2cccc(Cl)c2)cc1)C[C@@H](O)C(=O)O)C(=O)N1CC2(COC2)C1` [Example 4-50, (2R,4R)-5-(3′-Chlorobiphenyl-4-yl)-2-hydroxy-4-[2-(2-oxa-6-aza-spiro[3.3]hept-6-yl)-2-oxo-acetylamino]pentanoic acid] it was 0.01 to 0.0316 µM.
As for `O=C(NNc1ccc([N+](=O)[O-])cc1[N+](=O)[O-])C(=O)N[C@H](Cc1ccc(-c2cccc(Cl)c2)cc1)C[C@@H](O)C(=O)O` [Example 5, (2R,4R)-5-(3′-Chlorobiphenyl-4-yl)-4-{[N′-(2,4-dinitrophenyl)-hydrazinooxalyl]-amino}-2-hydroxypentanoic Acid], the Ki is ≤ 0.001 µM.
Then `CNNC(=O)C(=O)N[C@H](Cc1ccc(-c2cccc(Cl)c2)cc1)C[C@@H](O)C(=O)O` [Example 6-1, (2R,4R)-5-(3′-Chlorobiphenyl-4-yl)-2-hydroxy-4-[(N′-methylhydrazinooxalyl)-amino]pentanoic acid], with 0.01 to 0.0316 µM; and `CC(C)CNNC(=O)C(=O)N[C@H](Cc1ccc(-c2cccc(Cl)c2)cc1)C[C@@H](O)C(=O)O` [Example 6-2, (2R,4R)-5-(3′-Chlorobiphenyl-4-yl)-2-hydroxy-4-[(N′-isobutylhydrazinooxalyl)-amino]pentanoic acid], with 0.01 to 0.0316 µM.
As to `O=C(NNc1ccncc1)C(=O)N[C@H](Cc1ccc(-c2cccc(Cl)c2)cc1)C[C@@H](O)C(=O)O` [Example 6-3, (2R,4R)-5-(3′-Chlorobiphenyl-4-yl)-2-hydroxy-4-[(N′-pyridin-4-yl-hydrazino-oxalyl)-amino]pentanoic acid], the Ki was 0.001 to 0.01 µM.
In the case of `O=C(NNc1cccnc1)C(=O)N[C@H](Cc1ccc(-c2cccc(Cl)c2)cc1)C[C@@H](O)C(=O)O` [Example 6-4, (2R,4R)-5-(3′-Chlorobiphenyl-4-yl)-2-hydroxy-4-[(N′-pyridin-3-yl-hydrazino-oxalyl)-amino]pentanoic acid] it was 0.001 to 0.01 µM; in that of `O=C(NNc1cc(O)ncn1)C(=O)N[C@H](Cc1ccc(-c2cccc(Cl)c2)cc1)C[C@@H](O)C(=O)O` [Example 6-5, (2R,4R)-5-(3′-Chlorobiphenyl-4-yl)-2-hydroxy-4-{[N′-(6-hydroxy-pyrimidin-4-yl)-hydrazinooxalyl]amino}-pentanoic acid], 0.001 to 0.01 µM; in that of `O=C(NNC1=NCCN1)C(=O)N[C@H](Cc1ccc(-c2cccc(Cl)c2)cc1)C[C@@H](O)C(=O)O` [Example 6-6, (2R,4R)-5-(3′-Chlorobiphenyl-4-yl)-4-{[N′-(4,5-dihydro-1H-imidazol-2-yl)-hydrazinooxalyl]-amino}-2-hydroxypentanoic acid], 0.01 to 0.0316 µM.
In the case of `O=C(NNc1ccccc1Cl)C(=O)N[C@H](Cc1ccc(-c2cccc(Cl)c2)cc1)C[C@@H](O)C(=O)O` [Example 6-7, (2R,4R)-5-(3′-Chlorobiphenyl-4-yl)-4-{[N′-(2-chloro-phenyl)-hydrazinooxalyl]-amino}-2-hydroxypentanoic acid] it was 0.001 to 0.01 µM.
`O=C(NNc1ccccc1F)C(=O)N[C@H](Cc1ccc(-c2cccc(Cl)c2)cc1)C[C@@H](O)C(=O)O` [Example 6-8, (2R,4R)-5-(3′-Chlorobiphenyl-4-yl)-4-{[N′-(2-fluoro-phenyl)-hydrazinooxalyl]-amino}-2-hydroxypentanoic acid]: the Ki was 0.001 to 0.01 µM.
Then `O=C(NNc1cccc(Cl)c1)C(=O)N[C@H](Cc1ccc(-c2cccc(Cl)c2)cc1)C[C@@H](O)C(=O)O` [Example 6-9, (2R,4R)-5-(3′-Chlorobiphenyl-4-yl)-4-{[N′-(3-chloro-phenyl)-hydrazinooxalyl]-amino}-2-hydroxypentanoic acid], with 0.001 to 0.01 µM; and `Cc1ccccc1NNC(=O)C(=O)N[C@H](Cc1ccc(-c2cccc(Cl)c2)cc1)C[C@@H](O)C(=O)O` [Example 6-10, (2R,4R)-5-(3′-Chlorobiphenyl-4-yl)-2-hydroxy-4-[(N′-o-tolyl-hydrazinooxalyl)-amino]-pentanoic acid], with 0.001 to 0.01 µM.
In the case of `Cc1ccc(NNC(=O)C(=O)N[C@H](Cc2ccc(-c3cccc(Cl)c3)cc2)C[C@@H](O)C(=O)O)cc1` [Example 6-11, (2R,4R)-5-(3′-Chlorobiphenyl-4-yl)-2-hydroxy-4-[(N′-p-tolyl-hydrazinooxalyl)-amino]-pentanoic acid] it was 0.001 to 0.01 µM.
Turning to `O=C(NNc1ccc(F)cc1)C(=O)N[C@H](Cc1ccc(-c2cccc(Cl)c2)cc1)C[C@@H](O)C(=O)O` [Example 6-12, (2R,4R)-5-(3′-Chlorobiphenyl-4-yl)-4-{[N′-(4-fluoro-phenyl)-hydrazinooxalyl]-amino}-2-hydroxypentanoic acid], the Ki was 0.001 to 0.01 µM.
Turning to `O=C(NNc1ccc(Cl)cc1)C(=O)N[C@H](Cc1ccc(-c2cccc(Cl)c2)cc1)C[C@@H](O)C(=O)O` [Example 6-13, (2R,4R)-5-(3′-Chlorobiphenyl-4-yl)-4-{[N′-(4-chloro-phenyl)-hydrazinooxalyl]-amino}-2-hydroxypentanoic acid], the inhibition constant Ki is 0.001 to 0.01 µM.
In the case of `O=C(NNc1ccc(Br)cc1)C(=O)N[C@H](Cc1ccc(-c2cccc(Cl)c2)cc1)C[C@@H](O)C(=O)O` [Example 6-14, (2R,4R)-4-{[N′-(4-Bromophenyl)-hydrazinooxalyl]-amino}-5-(3′-chlorobiphenyl-4-yl)-2-hydroxypentanoic acid], the inhibition constant Ki was 0.001 to 0.01 µM.
In the case of `COc1ccc(NNC(=O)C(=O)N[C@H](Cc2ccc(-c3cccc(Cl)c3)cc2)C[C@@H](O)C(=O)O)cc1` [Example 6-15, (2R,4R)-5-(3′-Chlorobiphenyl-4-yl)-2-hydroxy-4-{[N′-(4-methoxyphenyl)-hydrazinooxalyl]amino}pentanoic acid] it was 0.001 to 0.01 µM.
Then `Cc1cccc(NNC(=O)C(=O)N[C@H](Cc2ccc(-c3cccc(Cl)c3)cc2)C[C@@H](O)C(=O)O)c1` [Example 6-16, (2R,4R)-5-(3′-Chlorobiphenyl-4-yl)-2-hydroxy-4-[(N′-m-tolylhydrazinooxalyl)-amino]pentanoic acid], with 0.001 to 0.01 µM; and `O=C(NNc1ccccc1)C(=O)N[C@H](Cc1ccc(-c2cccc(Cl)c2)cc1)C[C@@H](O)C(=O)O` [Example 6-17, (2R,4R)-5-(3′-Chlorobiphenyl-4-yl)-2-hydroxy-4-[(N′-phenylhydrazinooxalyl)-amino]pentanoic acid], with 0.001 to 0.01 µM.
Then `O=C(NNC(=O)c1ccccc1O)C(=O)N[C@H](Cc1ccc(-c2cccc(Cl)c2)cc1)C[C@@H](O)C(=O)O` [Example 7, (2R,4R)-5-(3′-Chlorobiphenyl-4-yl)-2-hydroxy-4-{2-[N′-(2-hydroxybenzoyl)hydrazino]-2-oxo-acetylamino}pentanoic Acid], with ≤ 0.001 µM.
As for `O=C(NNC(=O)C(=O)N[C@H](Cc1ccc(-c2cccc(Cl)c2)cc1)C[C@@H](O)C(=O)O)OCc1ccccc1` [Example 8-1, (2R,4R)-4-[2-(N′-Benzyloxycarbonyl-hydrazino)-2-oxo-acetylamino]-5-(3′-chloro-biphenyl-4-yl)-2-hydroxypentanoic acid], the Ki is 0.01 to 0.0316 µM.
On to `O=C(NNC(=O)c1ccc(Cl)nc1)C(=O)N[C@H](Cc1ccc(-c2cccc(Cl)c2)cc1)C[C@@H](O)C(=O)O` [Example 8-2, (2R,4R)-5-(3′-Chlorobiphenyl-4-yl)-4-{2-[N′-(6-chloro-pyridine-3-carbonyl)-hydrazino]-2-oxo-acetylamino}-2-hydroxypentanoic acid], for which the Ki was 0.001 to 0.01 µM.
Then `O=C(NNC(=O)c1cccnc1)C(=O)N[C@H](Cc1ccc(-c2cccc(Cl)c2)cc1)C[C@@H](O)C(=O)O` [Example 8-3, (2R,4R)-5-(3′-Chlorobiphenyl-4-yl)-2-hydroxy-4-{2-oxo-2-[N′-(pyridine-3-carbonyl)-hydrazino]acetylamino}pentanoic acid], with 0.001 to 0.01 µM; and `O=C(NNC(=O)c1ccncc1)C(=O)N[C@H](Cc1ccc(-c2cccc(Cl)c2)cc1)C[C@@H](O)C(=O)O` [Example 8-4, (2R,4R)-5-(3′-Chlorobiphenyl-4-yl)-2-hydroxy-4-{2-oxo-2-[N′-(pyridine-4-carbonyl)-hydrazino]acetylamino}pentanoic acid], with 0.001 to 0.01 µM; and `O=C(NNC(=O)c1ccco1)C(=O)N[C@H](Cc1ccc(-c2cccc(Cl)c2)cc1)C[C@@H](O)C(=O)O` [Example 8-5, (2R,4R)-5-(3′-Chlorobiphenyl-4-yl)-4-{2-[N′-(furan-2-carbonyl)-hydrazino]-2-oxo-acetylamino}-2-hydroxypentanoic acid], with 0.001 to 0.01 µM.
